# In US11306071B2, “Heterocyclic compounds as adenosine antagonists” (Nuvation Bio Inc., priority 2019, dated 2022):
# pIC50: −log10 of the molar value.
# Legend:
# [1] = target: adenosine A2a (human) membrane (Homo sapiens (Human), UniProt P29274); experiment: A2A adenosine receptor radioligand binding assay ([3H] CGS-21680); details: radioligand [3H] CGS-21680 6 nM
# Description: A second A2A adenosine receptor radioligand binding assay protocol was used. The protocol used adenosine A2a (human) membrane (PerkinElmer RBHA2AM400UA) at a concentration of 5 μg/well/100 μl and the radioligand [3H] CGS-21680 (Cat No. PerkinElmer-NET1021250UC) at a final concentration of 6 nM. Testing compounds were diluted with DMSO to make 8-point 4-fold serial dilution, starting at 0.2 mM. CGS-15943 was the reference compound. 1 μl of compounds/high control/low control was transferred to the assay plate according to a plate map, followed by 100 μl of membrane stocks and 100 μl of radioligand, in assay buffer (50 mM Tris-HCl, 10 mM MgCl2, 1 mM EDTA, pH 7.4). The plate was sealed and incubated at RT for 2 hours. Unifilter-96 GF/C filter plates (Perkin Elmer Cat #6005174) were soaked with 50 μl of 0.3% PEI per well for at least 0.5 hour at room temperature. When the binding assays were completed, the reaction mixtures were filtered through GF/C plates using Perkin Elmer Filtermate Harvester, and each plate washed 4 times with cold wash buffer (50 mM Tris-HCl, 154 mM NaCl, pH 7.4). The filter plates were dried for 1 hour at 50 degrees. After drying, the bottom of the filter plate wells was sealed, 50 μl of Perkin Elmer Microscint 20 cocktail was added, and the top of the filter plate was sealed. ^3H trapped on the filter was counted using Perkin Elmer MicroBeta2 Reader. The data were analyzed with GraphPad Prism 5 to obtain binding IC50 values. The “Inhibition [% Control]” was calculated using the equation: % Inh=(1-Background subtracted Assay value/Background subtracted HC value)*100, where HC is high control.
# [2] = target: adenosine A1 (human) membrane (Homo sapiens (Human), UniProt P30542); experiment: A1 adenosine receptor radioligand binding assay ([3H] DPCPX); details: 200 nM compound; radioligand [3H] DPCPX 1 nM
# Description: A second A1 adenosine receptor radioligand binding assay protocol was used. The protocol used adenosine A1 (human) membrane (PerkinElmer ES-010-M400UA) at a concentration of 2.5 μg/well/100 μl and the radioligand [3H] DPCPX (Cat No. PerkinElmer-NET974250UC) at a final concentration of 1 nM. Testing compounds were tested at a final concentration of 200 nM. CGS-15943, the reference compound, was tested in an 8-point 4-fold serial dilution, starting at a top concentration of 1 μM. 1 μl of compounds/high control/low control was transferred to the assay plate according to a plate map, followed by 100 μl of membrane stocks and 100 μl of radioligand, in assay buffer (25 mM HEPES, 5 mM MgCl2, 1 mM CaCl2, 100 mM NaCl, pH 7.4). The plate was sealed and incubated at RT for 1 hour. Unifilter-96 GF/C filter plates (Perkin Elmer Cat #6005174) were soaked with 50 μl of 0.3% PEI per well for at least 0.5 hour at room temperature. When the binding assays were completed, the reaction mixtures were filtered through GF/C plates using Perkin Elmer Filtermate Harvester, and each plate washed 4 times with cold wash buffer (25 mM HEPES, 5 mM MgCl2, 1 mM CaCl2, 100 mM NaCl, pH 7.4). The filter plates were dried for 1 hour at 50 degrees. After drying, the bottom of the filter plate wells was sealed, 50 μl of Perkin Elmer Microscint 20 cocktail was added, and the top of the filter plate was sealed. ^3H trapped on the filter was counted using Perkin Elmer MicroBeta2 Reader. The data were analyzed with GraphPad Prism 5 to obtain binding IC50 values for the reference compound. The “Inhibition [% Control]” was calculated using the equation: % Inh=(1-Background subtracted Assay value/Background subtracted HC value)*100, where HC is high control.
# [3] = target: HEK-293 cells expressing human recombinant adenosine A1 receptor (Homo sapiens (Human), UniProt P30542); experiment: cAMP assay (Assay 2), A1 receptor; format: cell-based
# Description: (§1) The functional activity of compounds was tested using Assay 2, below, to detect the presence of cAMP. Assay 1 is an alternative assay for this purpose. Activation of G-protein coupled receptors (such as A2A) results in activation of adenylyl cyclase which converts ATP into cAMP which is used as a downstream signaling molecule. Therefore, molecules which act as GPCR (or specifically A2A receptor) antagonists cause a decrease in intracellular cAMP concentration.
# (§2) Assay 2 (Table B2): This assay used HEK-293 cells expressing human recombinant adenosine A2A receptor (or, alternatively, A1 receptor) that were grown prior to the test in media without antibiotic. 100 nL of test articles at 100x of final concentration were transferred to assay plate by Echo. Cells were washed twice with 5 mL of PBS and 10 μL of cells were mixed with 5 mL PBS. After aspirating the PBS and adding 1.5 mL versine, cells were incubated at 37° C. for 2-5 min. After centrifugation, 4 mL of medium was added and adjusted cell density to 5,000 cells/well with Stimulation Buffer. 10 μL of cells were aliquoted to the assay plate, centrifuged at 1000 rpm for 1 minute, and incubated for 60 minutes at room temperature. 5 μL 4× Eu-cAMP tracer solution and 5 μL 4× Ulight™-anti-cAMP solution were added to assay plate, followed by centrifugation and 60-minute incubation at room temperature. Plates were read on EnVision.
# [4] = target: HEK-293 cells expressing human recombinant adenosine A2A receptor (Homo sapiens (Human), UniProt P29274); experiment: cAMP assay (Assay 2), A2A receptor; format: cell-based
# Description: as §1, §2
# Chain of HEK-293 cells expressing human recombinant adenosine A2A receptor (P29274 whole entry): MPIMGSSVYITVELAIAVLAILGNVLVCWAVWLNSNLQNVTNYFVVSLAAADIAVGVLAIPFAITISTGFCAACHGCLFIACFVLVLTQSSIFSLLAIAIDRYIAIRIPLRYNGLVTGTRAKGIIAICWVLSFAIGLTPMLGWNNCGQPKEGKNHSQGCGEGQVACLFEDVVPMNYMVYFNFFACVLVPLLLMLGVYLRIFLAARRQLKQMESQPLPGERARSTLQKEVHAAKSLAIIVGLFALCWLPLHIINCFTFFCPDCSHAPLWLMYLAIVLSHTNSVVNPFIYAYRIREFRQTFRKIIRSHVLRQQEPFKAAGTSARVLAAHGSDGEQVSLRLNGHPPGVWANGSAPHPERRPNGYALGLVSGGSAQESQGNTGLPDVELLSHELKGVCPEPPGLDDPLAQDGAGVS
# Chain of adenosine A2a (human) membrane (P29274 whole entry): as above
# Chain of HEK-293 cells expressing human recombinant adenosine A1 receptor (P30542 whole entry): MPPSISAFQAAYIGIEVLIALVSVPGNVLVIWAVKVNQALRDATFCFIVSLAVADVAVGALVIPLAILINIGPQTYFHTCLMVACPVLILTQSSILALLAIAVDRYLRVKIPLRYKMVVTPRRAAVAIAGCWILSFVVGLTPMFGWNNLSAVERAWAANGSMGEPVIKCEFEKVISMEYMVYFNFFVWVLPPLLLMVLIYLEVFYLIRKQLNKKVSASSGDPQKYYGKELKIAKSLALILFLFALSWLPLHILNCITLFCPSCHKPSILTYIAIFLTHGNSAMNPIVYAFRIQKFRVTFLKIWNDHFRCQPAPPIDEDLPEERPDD
# Chain of adenosine A1 (human) membrane (P30542 whole entry): as above
smiles,measurement,setting,value
"CC(C)(NC(=O)c1nc(-c2ccc3ncccc3c2)c(-c2ccccc2)nc1N)c1ccccn1 [compound 108, 3-amino-5-phenyl-N-(2-(pyridin-2-yl)propan-2-yl)-6-(quinolin-6-yl)pyrazine-2-carboxamide]",pIC50,[1],8.89
same,inhibition at 0.2 µM,[2],47%
same,pIC50,[3],6.49
same,pIC50,[4],7.26
